According to patent US20120029190A1, “COMPOUNDS FOR TREATING DISORDERS MEDIATED BY METABOTROPIC GLUTAMATE RECEPTOR 5, AND METHODS OF USE THEREOF” (priority 2009, published 2012):

target: T1, human recombinant mGluR5 receptor (Homo sapiens, UniProt P41594); assay: mGluR5 in vitro functional assay (aequorin cell line, inhibition of glutamate EC80 response); assay type: cell-based; details: Table 2; aequorin cell line expressing human mGluR5, reference agonist glutamate at EC80; obtained in duplicate; read-out: IC50
T1 construct: expressed in transfected cells; expression induced with doxycycline
T1 sequence (P41594 21-1212): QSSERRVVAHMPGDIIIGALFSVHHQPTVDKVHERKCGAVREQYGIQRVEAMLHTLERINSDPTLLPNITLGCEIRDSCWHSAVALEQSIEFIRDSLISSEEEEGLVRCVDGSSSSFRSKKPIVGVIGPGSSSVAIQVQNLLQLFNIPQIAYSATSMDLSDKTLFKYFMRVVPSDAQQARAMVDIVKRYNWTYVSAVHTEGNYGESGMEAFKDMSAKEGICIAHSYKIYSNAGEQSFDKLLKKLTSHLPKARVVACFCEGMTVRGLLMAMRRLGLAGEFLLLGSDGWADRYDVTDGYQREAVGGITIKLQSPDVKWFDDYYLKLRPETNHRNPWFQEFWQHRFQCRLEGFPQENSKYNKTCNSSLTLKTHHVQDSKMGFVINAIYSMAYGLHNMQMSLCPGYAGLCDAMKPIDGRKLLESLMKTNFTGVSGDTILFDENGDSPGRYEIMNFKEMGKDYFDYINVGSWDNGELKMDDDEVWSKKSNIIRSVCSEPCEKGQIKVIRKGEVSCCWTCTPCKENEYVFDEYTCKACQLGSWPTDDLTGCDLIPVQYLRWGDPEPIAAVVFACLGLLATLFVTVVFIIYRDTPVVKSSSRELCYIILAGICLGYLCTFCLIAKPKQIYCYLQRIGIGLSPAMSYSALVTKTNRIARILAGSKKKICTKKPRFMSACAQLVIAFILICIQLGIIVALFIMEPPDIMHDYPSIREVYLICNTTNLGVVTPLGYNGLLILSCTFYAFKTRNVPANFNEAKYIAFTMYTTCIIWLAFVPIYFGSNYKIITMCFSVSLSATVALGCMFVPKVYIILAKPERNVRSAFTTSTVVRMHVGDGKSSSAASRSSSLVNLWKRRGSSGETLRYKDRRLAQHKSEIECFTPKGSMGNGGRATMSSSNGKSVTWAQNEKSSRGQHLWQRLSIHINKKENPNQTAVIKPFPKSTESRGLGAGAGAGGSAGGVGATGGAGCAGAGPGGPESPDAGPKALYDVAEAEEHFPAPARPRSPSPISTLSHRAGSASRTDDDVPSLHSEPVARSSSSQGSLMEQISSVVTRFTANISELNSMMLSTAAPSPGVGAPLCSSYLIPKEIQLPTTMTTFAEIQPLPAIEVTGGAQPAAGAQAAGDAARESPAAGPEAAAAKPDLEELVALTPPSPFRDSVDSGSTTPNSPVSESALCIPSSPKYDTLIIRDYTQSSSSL
Method in brief: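 Doxycycline-induced (600 ng/mL, 18 h) aequorin cells loaded with coelenterazine h ≥4 h at room temperature; compound preincubated 3 min before glutamate at EC80. Luminescence recorded, normalized to digitonin or 20 mM ATP wells; % inhibition of EC80 response fitted by sigmoidal nonlinear regression.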

| SMILES | IC50 [nM] |
| --- | --- |
| CC1CCN(c2cc(F)cc(C#N)c2)Cc2nc(-c3ccccn3)oc21 (centres unmarked) [Compound 215, 3-Fluoro-5-(8-methyl-2-(pyridin-2-yl)-7,8-dihydro-4H-oxazolo[4,5-c]azepin-5(6H)-yl)benzonitrile] | < 1000 |
| N#Cc1cc(N2CCCc3oc(-c4ccccn4)nc3C2)cc(F)c1F [Compound 216, 2,3-Difluoro-5-(2-(pyridin-2-yl)-7,8-dihydro-4H-oxazolo[4,5-c]azepin-5(6H)-yl)benzonitrile] | < 1000 |
| COc1c(F)cc(N2CCCc3oc(-c4ccccn4)nc3C2)cc1C#N [Compound 217, 3-Fluoro-2-methoxy-5-(2-(pyridin-2-yl)-7,8-dihydro-4H-oxazolo[4,5-c]azepin-5(6H)-yl)benzonitrile] | < 1000 |
| N#Cc1cc(N2CCCc3oc(-c4ccccn4)nc3C2)cc(F)c1O [Compound 218, 3-Fluoro-2-hydroxy-5-(2-(pyridin-2-yl)-7,8-dihydro-4H-oxazolo[4,5-c]azepin-5(6H)-yl)benzonitrile] | < 10000 |
| N#Cc1cc(F)cc(C2CCc3oc(-c4ccccn4)nc3C2)c1 (centres unmarked) [Compound 222, 3-Fluoro-5-(2-(pyridin-2-yl)-4,5,6,7-tetrahydrobenzo[d]oxazol-5-yl)benzonitrile] | < 1000 |
